# Data as given in PubChem BioAssay (NCI).
#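 Cultured in 96-well plates, cells were exposed to test compound for 48 hours across five concentrations. The concentration for 50% growth inhibition is given as GI50. TGI is the concentration that stops growth completely.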
# Tests used:
# Assay in all cases: NCI anticancer screen, dose series, 48 h
# [1] = test system: 786-0 renal
# [2] = test system: A498 renal
# [3] = test system: A549 NSCLC
# [4] = test system: ACHN renal
# [5] = test system: BT-549 breast
# [6] = test system: CAKI-1 renal
# [7] = test system: CCRF-CEM leukemia
# [8] = test system: COLO 205 colon
# [9] = test system: DU-145 prostate
# [10] = test system: EKVX NSCLC
# [11] = test system: HCC-2998 colon
# [12] = test system: HCT-116 colon
# [13] = test system: HCT-15 colon
# [14] = test system: HL-60(TB) leukemia
# [15] = test system: HOP-62 NSCLC
# [16] = test system: HOP-92 NSCLC
# [17] = test system: HS 578T breast
# [18] = test system: HT29 colon
# [19] = test system: IGROV1 ovarian
# [20] = test system: K-562 leukemia
# [21] = test system: KM12 colon
# [22] = test system: LOX IMVI melanoma
# [23] = test system: M14 melanoma
# [24] = test system: MALME-3M melanoma
# [25] = test system: MCF7 breast
# [26] = test system: MDA-MB-231 breast
# [27] = test system: MDA-MB-435
# [28] = test system: MDA-N
# [29] = test system: MOLT-4 leukemia
# [30] = test system: NCI-H226 lung
# [31] = test system: NCI-H23 lung
# [32] = test system: NCI-H460 lung
# [33] = test system: NCI-H522 lung
# [34] = test system: NCI/ADR-RES ovarian
# [35] = test system: OVCAR-3 ovarian
# [36] = test system: OVCAR-4 ovarian
# [37] = test system: OVCAR-5 ovarian
# [38] = test system: OVCAR-8 ovarian
# [39] = test system: PC-3 prostate
# [40] = test system: RPMI-8226 leukemia
# [41] = test system: RXF 393 renal
# [42] = test system: SF-268 CNS
# [43] = test system: SF-295 CNS
# [44] = test system: SF-539 CNS
# [45] = test system: SK-MEL-2 melanoma
# [46] = test system: SK-MEL-28 melanoma
# [47] = test system: SK-MEL-5 melanoma
# [48] = test system: SK-OV-3 ovarian
# [49] = test system: SN12C renal
# [50] = test system: SNB-19 CNS
# [51] = test system: SNB-75 CNS
# [52] = test system: SR leukemia
# [53] = test system: SW-620 colon
# [54] = test system: T-47D breast
# [55] = test system: TK-10 renal
# [56] = test system: U251 CNS
# [57] = test system: UACC-257 melanoma
# [58] = test system: UACC-62 melanoma
# [59] = test system: UO-31 renal
smiles,measurement,setting,value
COc1ccc2nc3cccc([N+](=O)[O-])c3c(NCCNCCO)c2c1,GI50,[1],21.2 nM
same,TGI,[1],102 nM
same,GI50,[2],26.2 nM
same,TGI,[2],70.9 nM
same,GI50,[3],27.4 nM
same,TGI,[3],119 nM
same,GI50,[4],15.9 nM
same,TGI,[4],70.1 nM
same,GI50,[5],51 nM
same,TGI,[5],173 nM
same,GI50,[6],39.6 nM
same,TGI,[6],502 nM
same,GI50,[7],24 nM
same,TGI,[7],173 nM
same,GI50,[8],13.7 nM
same,TGI,[8],54.5 nM
same,GI50,[9],10.4 nM
same,TGI,[9],746 nM
same,GI50,[10],104 nM
same,TGI,[10],426 nM
same,GI50,[11],41.7 nM
same,TGI,[11],206 nM
same,GI50,[12],19.6 nM
same,TGI,[12],753 nM
same,GI50,[13],206 nM
same,GI50,[14],21.2 nM
same,TGI,[14],4140 nM
same,GI50,[15],35.2 nM
same,TGI,[15],169 nM
same,GI50,[16],23 nM
same,TGI,[16],64.9 nM
same,GI50,[17],50.1 nM
same,TGI,[17],361 nM
same,GI50,[18],12 nM
same,TGI,[18],99.1 nM
same,GI50,[19],17.3 nM
same,TGI,[19],71.7 nM
same,GI50,[20],15.3 nM
same,TGI,[20],121 nM
same,GI50,[21],60 nM
same,TGI,[21],250 nM
same,GI50,[22],18.4 nM
same,TGI,[22],72.1 nM
same,GI50,[23],19.8 nM
same,TGI,[23],53.4 nM
same,GI50,[24],25 nM
same,TGI,[24],124 nM
same,GI50,[25],10.2 nM
same,TGI,[25],100 nM
same,GI50,[26],411 nM
same,TGI,[26],8250 nM
same,GI50,[27],25.6 nM
same,TGI,[27],90.3 nM
same,GI50,[28],37 nM
same,TGI,[28],156 nM
same,GI50,[29],20.7 nM
same,TGI,[29],229 nM
same,GI50,[30],52.2 nM
same,TGI,[30],340 nM
same,GI50,[31],104 nM
same,TGI,[31],2700 nM
same,GI50,[32],11.4 nM
same,TGI,[32],102 nM
same,TGI,[33],14.6 nM
same,GI50,[34],660 nM
same,TGI,[34],6700 nM
same,GI50,[35],26.5 nM
same,TGI,[35],66.7 nM
same,GI50,[36],19.9 nM
same,TGI,[36],51.5 nM
same,GI50,[37],32.7 nM
same,TGI,[37],185 nM
same,GI50,[38],13 nM
same,TGI,[38],151 nM
same,TGI,[39],130 nM
same,GI50,[40],19.8 nM
same,TGI,[40],111 nM
same,GI50,[41],18.7 nM
same,TGI,[41],47.4 nM
same,GI50,[42],18.4 nM
same,TGI,[42],92.5 nM
same,GI50,[43],23.8 nM
same,TGI,[43],188 nM
same,GI50,[44],43.3 nM
same,TGI,[44],186 nM
same,GI50,[45],16.7 nM
same,TGI,[45],34.4 nM
same,GI50,[46],102 nM
same,TGI,[46],352 nM
same,GI50,[47],11.3 nM
same,TGI,[47],25.8 nM
same,GI50,[48],45.9 nM
same,TGI,[48],388 nM
same,GI50,[49],46.8 nM
same,TGI,[49],306 nM
same,GI50,[50],130 nM
same,TGI,[50],636 nM
same,GI50,[51],36.7 nM
same,TGI,[51],151 nM
same,GI50,[52],16.7 nM
same,TGI,[52],3280 nM
same,GI50,[53],19.8 nM
same,TGI,[53],610 nM
same,GI50,[54],81.3 nM
same,TGI,[54],619 nM
same,GI50,[55],29.1 nM
same,TGI,[55],272 nM
same,GI50,[56],22.6 nM
same,TGI,[56],155 nM
same,GI50,[57],51.8 nM
same,TGI,[57],189 nM
same,GI50,[58],16.2 nM
same,TGI,[58],39.7 nM
same,GI50,[59],106 nM
same,TGI,[59],336 nM
